# Data: US10800792B2, “Inhibitors of Bruton's tyrosine kinase and method of their use” (JANSSEN PHARMACEUTICA NV, priority 2015, dated 2020)
# Where two headings read alike, the source gives them in different places.
# Target: unphosphorylated-BTK kinase domain (UP-BTK), GST-tagged human BTK (389-659aa) (Homo sapiens (Human), UniProt Q06187)
# Test: BTK kinase Lanthascreen binding assay
# Settings: pIC50 = negative log of the IC50 in molar; for IC50: read-out: BTK_I_binding pIC50 (converted)
# Description: BTK Kinase Lanthascreen Binding Assay:
# A BTK kinase lanthascreen binding assay monitors compound binding to unphosphorylated-BTK kinase domain (UP-BTK), by competing with a fluorescent labeled tracer. […] Data were analyzed using Xlfit™ version 5.3 from ID Business Solutions (Guildford), Microsoft Excel add-in. pIC50 refers to the negative log of the IC50 in molar
# [1] = 60 minutes incubation, 50 nM Tracer 236
# [2] = unphosphorylated-BTK kinase domain, 50 nM Tracer 236, 60 minutes
# Sequence of unphosphorylated-BTK kinase domain (UP-BTK), GST-tagged human BTK (389-659aa) (Q06187 389-659): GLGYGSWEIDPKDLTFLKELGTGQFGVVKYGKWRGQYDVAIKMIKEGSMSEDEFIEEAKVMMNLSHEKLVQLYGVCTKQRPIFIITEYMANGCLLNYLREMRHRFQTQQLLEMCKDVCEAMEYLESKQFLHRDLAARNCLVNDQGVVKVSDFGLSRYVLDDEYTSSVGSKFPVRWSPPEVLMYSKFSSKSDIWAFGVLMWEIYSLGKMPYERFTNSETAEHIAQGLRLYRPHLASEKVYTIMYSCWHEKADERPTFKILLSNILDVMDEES
Structure (SMILES),BTK_I_binding pIC50 [1],further results
"C=CC(=O)N1C[C@@H](F)[C@@H](NC(=O)c2sc3nccc4c3c2NC(=O)N4c2ccc(Oc3ccccc3)cc2C)C1 (single isomer, unassigned) [Example 28, N-((3S,4R)-1-Acryloyl-4-fluoropyrrolidin-3-yl)-5-(*S)-(2-methyl-4-phenoxyphenyl)-4-oxo-4,5-dihydro-3H-1-thia-3,5,8-triazaacenaphthylene-2-carboxamide]",,IC50 [1]: 12.6 nM
"Cc1cc(Oc2ccccc2)ccc1N1C(=O)Nc2c(C(=O)N[C@@H]3CCCN(C#N)C3)sc3nccc1c23 (single isomer, unassigned) [Example 35, (R)—N-(1-Cyanopiperidin-3-yl)-5-(*S)-(2-methyl-4-phenoxyphenyl)-4-oxo-4,5-dihydro-3H-1-thia-3,5,8-triazaacenaphthylene-2-carboxamide]",,IC50 [1]: 31.6 nM
"Cc1cc(Oc2ccccc2)ccc1N1C(=O)Nc2c(C(=O)N[C@@H]3CCCN(C(=O)/C(C#N)=C/C(C)(C)N4CCOCC4)C3)sc3nccc1c23 (single isomer, unassigned) [Example 43, (R,E)-N-(1-(2-Cyano-4-methyl-4-morpholinopent-2-enoyl)piperidin-3-yl)-5-(*S)-(2-methyl-4-phenoxyphenyl)-4-oxo-4,5-dihydro-3H-1-thia-3,5,8-triazaacenaphthylene-2-carboxamide]",7.2,
"C=C(F)C(=O)N1CCC[C@@H](NC(=O)c2sc3nccc4c3c2NC(=O)N4c2ccc(Oc3ccccc3)cc2C)C1 (single isomer, unassigned) [Example 49, (R)—N-(1-(2-Fluoroacryloyl)piperidin-3-yl)-5-(*S)-(2-methyl-4-phenoxyphenyl)-4-oxo-4,5-dihydro-3H-1-thia-3,5,8-triazaacenaphthylene-2-carboxamide]",7.2,
"Cc1cc(Oc2ccccc2)ccc1N1C(=O)Nc2c(C(=O)N[C@H]3CCOC3)sc3nccc1c23 (single isomer, unassigned) [Example 68, (S)-5-(*S)-(2-Methyl-4-phenoxyphenyl)-4-oxo-N-(tetrahydrofuran-3-yl)-4,5-dihydro-3H-1-thia-3,5,8-triazaacenaphthylene-2-carboxamide]",7.7,
"Cc1cc(Oc2ccccc2)ccc1N1C(=O)Nc2c(C(=O)N[C@@H]3CCOC3)sc3nccc1c23 (single isomer, unassigned) [Example 80, (R)-5-(*S)-(2-Methyl-4-phenoxyphenyl)-4-oxo-N-(tetrahydrofuran-3-yl)-4,5-dihydro-3H-1-thia-3,5,8-triazaacenaphthylene-2-carboxamide]",7.8,
"Cc1cc(Oc2ccccc2)ccc1N1C(=O)Nc2c(C(=O)N[C@@H]3CCCNC3)sc3nccc1c23 (single isomer, unassigned) [Example 98, (R)-5-(*S)-(2-Methyl-4-phenoxyphenyl)-4-oxo-N-(piperidin-3-yl)-4,5-dihydro-3H-1-thia-3,5,8-triazaacenaphthylene-2-carboxamide]",7.3,
"C/C=C/C(=O)N1CCC[C@@H](NC(=O)c2sc3nccc4c3c2NC(=O)N4c2ccc(Oc3ccccc3)cc2C)C1 (single isomer, unassigned) [Example 100, (R,E)-N-(1-(But-2-enoyl)piperidin-3-yl)-5-(*S)-(2-methyl-4-phenoxyphenyl)-4-oxo-4,5-dihydro-3H-1-thia-3,5,8-triazaacenaphthylene-2-carboxamide]",7.1,
"Cc1cc(Oc2ccccc2)ccc1N1C(=O)Nc2c(C(=O)N[C@@H]3CCCN(C(=O)CCO)C3)sc3nccc1c23 (single isomer, unassigned) [Example 318, (R)—N-(1-(3-Hydroxypropanoyl)piperidin-3-yl)-5-(*R)-(2-methyl-4-phenoxyphenyl)-4-oxo-4,5-dihydro-3H-1-thia-3,5,8-triazaacenaphthylene-2-carboxamide]",,BTK_I_binding pIC50 [2]: 5.8
"Cc1cc(Oc2ccccc2)ccc1N1C(=O)Nc2c(C(=O)N[C@H]3CCOC3)sc3nccc1c23 (single isomer, unassigned) [Example 323, (S)-5-(*R)-(2-Methyl-4-phenoxyphenyl)-4-oxo-N-(tetrahydrofuran-3-yl)-4,5-dihydro-3H-1-thia-3,5,8-triazaacenaphthylene-2-carboxamide]",,BTK_I_binding pIC50 [2]: 5.7
"CCC(=O)N1CC[C@@H](NC(=O)c2sc3nccc4c3c2NC(=O)N4c2ccc(Oc3ccccc3)cc2C)C1 (single isomer, unassigned) [Example 325, (R)-5-(*R)-(2-Methyl-4-phenoxyphenyl)-4-oxo-N-(1-propionylpyrrolidin-3-yl)-4,5-dihydro-3H-1-thia-3,5,8-triazaacenaphthylene-2-carboxamide]",,BTK_I_binding pIC50 [2]: 5.7
"CCC(=O)N1CCC[C@@H](NC(=O)c2sc3nccc4c3c2NC(=O)N4c2ccc(Oc3ccccc3)cc2C)C1 (single isomer, unassigned) [Example 345, (R)-5-(*R)-(2-Methyl-4-phenoxyphenyl)-4-oxo-N-(1-propionylpiperidin-3-yl)-4,5-dihydro-3H-1-thia-3,5,8-triazaacenaphthylene-2-carboxamide]",,BTK_I_binding pIC50 [2]: <5
"Cc1cc(Oc2ccccc2)ccc1N1C(=O)Nc2c(C(=O)N[C@@H]3CCCN(C(=O)/C(C#N)=C/C4CC4)C3)sc3nccc1c23 (single isomer, unassigned) [Example 365, (R,E)-N-(1-(2-Cyano-3-cyclopropylacryloyl)piperidin-3-yl)-5-(*R)-(2-methyl-4-phenoxyphenyl)-4-oxo-4,5-dihydro-3H-1-thia-3,5,8-triazaacenaphthylene-2-carboxamide]",,IC50 [2]: 50.1 nM
"Cc1cc(Oc2ccccc2)ccc1N1C(=O)Nc2c(C(=O)N[C@@H]3CCCN(C(=O)/C(C#N)=C/C4(C)COC4)C3)sc3nccc1c23 (single isomer, unassigned) [Example 387, (R,E)-N-(1-(2-Cyano-3-(3-methyloxetan-3-yl)acryloyl)piperidin-3-yl)-5-(*R)-(2-methyl-4-phenoxyphenyl)-4-oxo-4,5-dihydro-3H-1-thia-3,5,8-triazaacenaphthylene-2-carboxamide]",,BTK_I_binding pIC50 [2]: 7.8

# Now from value to molecule, other results behind:
BTK_I_binding pIC50 [1],Structure (SMILES),further results
7.9,"C#CC(=O)N1CCC[C@@H](NC(=O)c2sc3nccc4c3c2NC(=O)N4c2ccc(Oc3ccccc3)cc2C)C1 (single isomer, unassigned) [Example 46, (R)-5-(*S)-(2-methyl-4-phenoxyphenyl)-4-oxo-N-(1-propioloylpiperidin-3-yl)-4,5-dihydro-3H-1-thia-3,5,8-triazaacenaphthylene-2-carboxamide]",
7.4,"CC#CC(=O)N1CCC[C@@H](NC(=O)c2sc3nccc4c3c2NC(=O)N4c2ccc(Oc3ccccc3)cc2C)C1 (single isomer, unassigned) [Example 55, (R)—N-(1-(But-2-ynoyl)piperidin-3-yl)-5-(*S)-(2-methyl-4-phenoxyphenyl)-4-oxo-4,5-dihydro-3H-1-thia-3,5,8-triazaacenaphthylene-2-carboxamide]",
7.5,"CCC(=O)N1CC[C@@H](NC(=O)c2sc3nccc4c3c2NC(=O)N4c2ccc(Oc3ccccc3)cc2C)C1 (single isomer, unassigned) [Example 84, (R)-5-(*S)-(2-Methyl-4-phenoxyphenyl)-4-oxo-N-(1-propionylpyrrolidin-3-yl)-4,5-dihydro-3H-1-thia-3,5,8-triazaacenaphthylene-2-carboxamide]",
7.1,"Cc1cc(Oc2ccccc2)ccc1N1C(=O)Nc2c(C(=O)N[C@@H]3CCN(C(C)C)C3)sc3nccc1c23 (single isomer, unassigned) [Example 93, (R)—N-(1-Isopropylpyrrolidin-3-yl)-5-(*S)-(2-methyl-4-phenoxyphenyl)-4-oxo-4,5-dihydro-3H-1-thia-3,5,8-triazaacenaphthylene-2-carboxamide]",
7.6,"Cc1cc(Oc2ccccc2)ccc1N1C(=O)Nc2c(C(=O)N[C@@H]3CCCN(C(=O)CCO)C3)sc3nccc1c23 (single isomer, unassigned) [Example 99, (R)—N-(1-(3-Hydroxypropanoyl)piperidin-3-yl)-5-(*S)-(2-methyl-4-phenoxyphenyl)-4-oxo-4,5-dihydro-3H-1-thia-3,5,8-triazaacenaphthylene-2-carboxamide]",
7.5,"CNCC(=O)N1CCC[C@@H](NC(=O)c2sc3nccc4c3c2NC(=O)N4c2ccc(Oc3ccccc3)cc2C)C1 (single isomer, unassigned) [Example 183, (R)-5-(*S)-(2-Methyl-4-phenoxyphenyl)-N-(1-(2-(methylamino)acetyl)piperidin-3-yl)-4-oxo-4,5-dihydro-3H-1-thia-3,5,8-triazaacenaphthylene-2-carboxamide]",
7.4,"CCC(=O)N1CCC[C@@H](NC(=O)c2sc3nccc4c3c2NC(=O)N4c2ccc(Oc3ccccc3)cc2C)C1 (single isomer, unassigned) [Example 184, (R)-5-(*S)-(2-Methyl-4-phenoxyphenyl)-4-oxo-N-(1-propionylpiperidin-3-yl)-4,5-dihydro-3H-1-thia-3,5,8-triazaacenaphthylene-2-carboxamide]",
6.2,"CNCC(=O)N1CCC[C@@H](NC(=O)c2sc3nccc4c3c2NC(=O)N4c2ccc(Oc3ccccc3)cc2C)C1 (single isomer, unassigned) [Example 253, (R)-5-(*R)-(2-Methyl-4-phenoxyphenyl)-N-(1-(2-(methylamino)acetyl)piperidin-3-yl)-4-oxo-4,5-dihydro-3H-1-thia-3,5,8-triazaacenaphthylene-2-carboxamide]",
